The text below walks through data of ChEMBL document CHEMBL1201862, “PubChem BioAssay data set” (2004).

SMILES strings stand for the structures.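 A five-concentration, 48-hour dose response in 96-well plates underlies each endpoint, interpolated linearly between surrounding concentrations. GI50 = concentration required for 50% inhibition of growth.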 Active and inactive are the calls of the source. Cut-off read from the data, not from the text of the source: active = GI50 up to about 1.1 µM and inactive = higher. Where only a bound is given, the exact number is not on record here.

Test systems include CCRF-CEM; HCT-15; HL-60; IGROV-1; KM12; M14; MOLT-4; NCI-H226; NCI-H460; NCI-H522; OVCAR-3; RXF 393; SK-MEL-2; SK-MEL-5; SNB-19; SNB-75; UACC-257; MCF7; MDA-MB-231.
Assay in all cases: growth of human tumour cells (NCI), 48 h

With `[O-][S+]1Nc2cccc(C(F)(F)F)c2S1` (centres undefined), the GI50 was 6.78 µM (inactive) in the assay with CCRF-CEM; 18.6 µM with HCT-15; 7.66 µM (inactive) in the assay with HL-60; 38.5 µM (inactive) in the assay with IGROV-1; 21.4 µM (inactive) with KM12; 65.3 µM (inactive) in the assay with M14. For the same compound, the GI50 in the assay with MOLT-4 is 21 µM (inactive); in the assay on NCI-H226, 73.3 µM (inactive); in the assay with NCI-H460, 40.9 µM (inactive); in the assay with NCI-H522 it was 28.1 µM (inactive); with OVCAR-3, 33.5 µM (inactive); in the assay on RXF 393, 22.5 µM (inactive). For the same compound, the GI50 in the assay on SK-MEL-2 was 24.3 µM (inactive); in the assay with SK-MEL-5, 42 µM (inactive); in the assay with SNB-19, 67.1 µM (inactive); in the assay on SNB-75, 29.6 µM (inactive); with UACC-257 it was 32.1 µM (inactive).

Consider `CC(C)N1CC2CC(CN(C(=O)c3ccccc3)C2)C1.[O-][Cl+3]([O-])([O-])O`, for which the GI50 with CCRF-CEM is > 100 µM (inactive); in the assay on HCT-15, greater than 100 µM; in the assay with HL-60, > 100 µM (inactive); in the assay on IGROV-1 it was > 100 µM (inactive); in the assay with KM12, > 100 µM (inactive); in the assay on M14, > 100 µM (inactive). Moreover, the GI50 is > 100 µM (inactive) in the assay on MOLT-4; 72.9 µM (inactive) with NCI-H226; > 100 µM (inactive) in the assay on NCI-H460; > 100 µM (inactive) in the assay on NCI-H522; > 100 µM (inactive) in the assay with OVCAR-3; > 100 µM (inactive) with RXF 393. Moreover, the GI50 with SK-MEL-2, in the assay with SK-MEL-5, in the assay on SNB-19, in the assay on SNB-75 and in the assay with UACC-257 was > 100 µM (inactive) in each case.

With `Cc1ccccc1NC(=O)C(=O)Cc1nc2ccccc2s1`, the GI50 in the assay with CCRF-CEM is > 100 µM (inactive); in the assay with HCT-15 it was greater than 100 µM; with HL-60, > 100 µM (inactive); in the assay on IGROV-1 it was > 100 µM (inactive); in the assay with KM12, > 100 µM (inactive); in the assay on M14, > 100 µM (inactive). The GI50 in the assay on MOLT-4, in the assay on NCI-H226, in the assay on NCI-H460, in the assay on NCI-H522, with OVCAR-3 and with RXF 393 was > 100 µM (inactive) each time. For the same compound, the GI50 with SK-MEL-2, in the assay on SK-MEL-5, in the assay with SNB-19, with SNB-75 and in the assay on UACC-257 was > 100 µM (inactive) throughout.

Take `NC1=NNC2(C(N)=N1)c1ccccc1-c1ccccc12`: the GI50 was greater than 10 µM in the assay on HCT-15; > 10 µM (inactive) in the assay with HL-60; > 10 µM (inactive) in the assay with IGROV-1; > 10 µM (inactive) in the assay on KM12; > 10 µM (inactive) in the assay on M14; > 10 µM (inactive) in the assay on MCF7. Moreover, the GI50 with MDA-MB-231, in the assay on MOLT-4, in the assay on NCI-H226, in the assay on NCI-H460, in the assay with NCI-H522 and with RXF 393 was > 10 µM (inactive) throughout. Moreover, the GI50 with SK-MEL-5, in the assay on SNB-19, in the assay with SNB-75 and in the assay on UACC-257 was > 10 µM (inactive) in each case.

Regarding `CC1=C(C(=O)Nc2cc(F)c(F)cc2F)C(c2ccc3c(c2)OCO3)C(C(=O)Nc2cc(F)c(F)cc2F)=C(C)N1`, the GI50 in the assay with CCRF-CEM was 19.5 µM (inactive); with HL-60, 13.8 µM (inactive); in the assay with IGROV-1, 28.7 µM (inactive); in the assay on KM12 it was 19.2 µM (inactive); with M14, 24.2 µM (inactive); in the assay on MOLT-4, 14.2 µM (inactive). Moreover, the GI50 in the assay with NCI-H226 was 23.9 µM (inactive); in the assay on NCI-H460, 25.2 µM (inactive); in the assay with NCI-H522, 14.9 µM (inactive); in the assay with OVCAR-3 it was 15.7 µM (inactive); in the assay on RXF 393, 11.5 µM (inactive); with SK-MEL-2, 18 µM (inactive). The GI50 with SK-MEL-5 was 19.4 µM (inactive); with SNB-19, 38.4 µM (inactive); in the assay on SNB-75, 13.1 µM (inactive); with UACC-257 it was 25.9 µM (inactive).

With `O=C(c1ccc(Cl)cc1)c1ccc(OCCCCCCCCCCOc2ccc(C(=O)c3ccc(Cl)cc3)cc2)cc1`, the GI50 was > 100 µM (inactive) with CCRF-CEM; greater than 100 µM with HCT-15; > 100 µM (inactive) in the assay with HL-60; > 100 µM (inactive) in the assay with IGROV-1; > 100 µM (inactive) with KM12; > 100 µM (inactive) in the assay with MOLT-4. In addition, the GI50 with NCI-H226, in the assay on NCI-H460, in the assay on NCI-H522, in the assay with OVCAR-3, in the assay with RXF 393 and in the assay with SK-MEL-2 was > 100 µM (inactive) each time. Moreover, the GI50 in the assay with SK-MEL-5, with SNB-19, with SNB-75 and in the assay on UACC-257 was > 100 µM (inactive) throughout.

Turning to `COc1cc2cc(OC)c3cc4c(cc3c2c(OC)c1OC)OCO4`, the GI50 with CCRF-CEM was 15 µM (inactive); in the assay with HCT-15, 12.8 µM; with HL-60, 15.3 µM (inactive); with IGROV-1 it was > 66.8 µM (inactive); in the assay on KM12, 14.2 µM (inactive); in the assay with M14 it was 19.7 µM (inactive). Besides, the GI50 in the assay with MOLT-4 is 22.8 µM (inactive); in the assay with NCI-H226, > 100 µM (inactive); in the assay on NCI-H460, 17.6 µM (inactive); in the assay on NCI-H522, 18 µM (inactive); in the assay on OVCAR-3, 41.5 µM (inactive); in the assay on RXF 393 it was 42.9 µM (inactive). Further, the GI50 with SK-MEL-2 is 71 µM (inactive); in the assay on SK-MEL-5, 23.4 µM (inactive); with SNB-19, > 100 µM (inactive); in the assay on SNB-75 it was 7.55 µM (inactive); in the assay on UACC-257, 34.9 µM (inactive).

Regarding `COc1cc(C(=O)C/C(CCC(=O)Nc2ccccc2[N+](=O)[O-])=N\NC(N)=O)ccc1O`, the GI50 was > 100 µM (inactive) in the assay on CCRF-CEM; greater than 100 µM with HCT-15; > 100 µM (inactive) in the assay on HL-60; > 100 µM (inactive) with IGROV-1; > 100 µM (inactive) in the assay with KM12; > 100 µM (inactive) in the assay with M14. The GI50 with MOLT-4, in the assay with NCI-H226, in the assay with NCI-H460, in the assay on NCI-H522, in the assay on OVCAR-3 and in the assay with RXF 393 was > 100 µM (inactive) throughout. In addition, the GI50 with SK-MEL-2, in the assay on SK-MEL-5, in the assay with SNB-19, in the assay with SNB-75 and in the assay with UACC-257 was > 100 µM (inactive) throughout.

With `O=C(/C=C/c1ccc(Br)cc1)c1ccc(NCc2nc3ccccc3[nH]2)cc1`, the GI50 in the assay with CCRF-CEM is 4.76 µM (inactive); with HCT-15 it was 3.95 µM; in the assay on HL-60, 5.86 µM (inactive); in the assay on IGROV-1, 17.3 µM (inactive); in the assay on KM12, 2.67 µM (inactive); in the assay with M14, 17.9 µM (inactive). Besides, the GI50 was 3.31 µM (inactive) with MOLT-4; 10.9 µM (inactive) in the assay with NCI-H226; 8.22 µM (inactive) with NCI-H460; 3.41 µM (inactive) in the assay on NCI-H522; 4.61 µM (inactive) with OVCAR-3; 4.35 µM (inactive) in the assay on RXF 393. Also, the GI50 in the assay on SK-MEL-2 is 17.6 µM (inactive); in the assay with SK-MEL-5 it was 4.4 µM (inactive); in the assay on SNB-19 it was 8.79 µM (inactive); with SNB-75 it was 4.34 µM (inactive); in the assay on UACC-257, 3.81 µM (inactive).

With `COc1ccc2c(c1)CCN=C2Cc1ccccc1CCCl`, the GI50 was 20.7 µM (inactive) with CCRF-CEM; 20.6 µM in the assay on HCT-15; 14.2 µM (inactive) in the assay on HL-60; 25.8 µM (inactive) in the assay with IGROV-1; 23.1 µM (inactive) in the assay on KM12; 19.1 µM (inactive) in the assay on M14. Also, the GI50 with MCF7 was 26 µM (inactive); with MDA-MB-231, 15.4 µM (inactive); in the assay with MOLT-4, 23.7 µM (inactive); in the assay on NCI-H226, 26.2 µM (inactive); in the assay with NCI-H460, 15.4 µM (inactive); in the assay with NCI-H522 it was 19.6 µM (inactive). The GI50 with OVCAR-3 was 33.9 µM (inactive); in the assay on RXF 393 it was 27.8 µM (inactive); in the assay with SK-MEL-2 it was 25.5 µM (inactive); in the assay with SK-MEL-5, 17.5 µM (inactive); in the assay on SNB-19, 25.8 µM (inactive); with SNB-75, 31.3 µM (inactive). The GI50 in the assay with UACC-257 was 30.7 µM (inactive).

On to `Oc1ccc2c(c1)-c1c(c3cc(O)ccc3n1CCN1CCOCC1)CC2`, for which the GI50 with CCRF-CEM is 22.8 µM (inactive); in the assay on HCT-15, 19.2 µM; in the assay on HL-60, 23.2 µM (inactive); in the assay on IGROV-1 it was 24.2 µM (inactive); with KM12 it was 32.7 µM (inactive); in the assay on M14 it was 19.5 µM (inactive). Further, the GI50 in the assay on MCF7 was 18.7 µM (inactive); in the assay with MDA-MB-231, 17.6 µM (inactive); with MOLT-4, 19.6 µM (inactive); in the assay with NCI-H226, 18.5 µM (inactive); in the assay on NCI-H522, 17.4 µM (inactive); in the assay on OVCAR-3 it was 20.7 µM (inactive). Moreover, the GI50 with RXF 393 was 19.7 µM (inactive); with SK-MEL-2, 17.6 µM (inactive); in the assay with SK-MEL-5, 16.6 µM (inactive); in the assay with SNB-19, 29 µM (inactive); with SNB-75, 19.5 µM (inactive); in the assay with UACC-257, 36.6 µM (inactive).

Turning to `Cn1c2ccccc2c2[nH]cc3nc4ccccc4c-3c21`, the GI50 is 30.8 µM (inactive) in the assay on CCRF-CEM; 19.9 µM with HCT-15; 20.6 µM (inactive) with HL-60; 18 µM (inactive) in the assay on IGROV-1; 17 µM (inactive) in the assay on KM12; 17.9 µM (inactive) in the assay on M14. Moreover, the GI50 with MOLT-4 was 23.8 µM (inactive); in the assay on NCI-H226 it was 22.4 µM (inactive); with NCI-H460, 15.5 µM (inactive); with NCI-H522, 13.5 µM (inactive); in the assay with OVCAR-3 it was 17.1 µM (inactive); in the assay with RXF 393, 16.1 µM (inactive). The GI50 in the assay with SK-MEL-2 was > 100 µM (inactive); in the assay with SK-MEL-5 it was 18.1 µM (inactive); with SNB-19, 26.1 µM (inactive); in the assay on SNB-75 it was 19.5 µM (inactive); in the assay on UACC-257, 22.3 µM (inactive).
